Experimental data reported in patent EP0373658A2, “Use of quinoline derivatives in treating cancer” (priority 1988, dated 1990).

Key:
[1] = system: serum prolactin; test: lowering basal serum prolactin levels in the male rat (prolactin secretion inhibition); assay type: in vivo
Excerpt: Many of the above mentioned compounds are published as prolactin secretion inhibitors, some of which are extremely potent and have long lasting activity. The potency of the compounds as prolactin secretion inhibitors can be determined in standard tests, e.g. by lowering basal serum prolactin levels in the male rat.

[2] = system: 5-HT sensitive adenylate cyclase of the liver fluke; test: activation of 5-HT sensitive adenylate cyclase of the liver fluke (method of R. Markstein); assay type: biochemical; settings: adenylate cyclase stimulated by serotonin
Excerpt: A group of compounds comprises compounds which are D₂ agonists without any antagonistic activity. Another group of compounds includes those compounds which are serotonin agonists, e.g. as indicated in standard in vitro binding tests and by activation of 5-HT sensitive adenylate cyclase of the liver fluke according to the method of R.Markstein, Neurochemical Effects of Some Ergot Derivatives: A Basis for their Antiparkinson Actions. J. Neural transm 51:39, (1981).
Examples of such compounds include compound C and pergolide. Compound C, pergolide and 5-HT agonists have efficacies of 90, 80, and 100 respectively and pD₂ [10g EC₅₀] of 6.9, 6.9 and 7.7 respectively in this test on adenylate cyclase stimulated by serotonin.

[3] = 52 week toxicology studies in rats; assay type: in vivo; settings: oral doses, 0.20 mg/kg/day
[4] = system: operable breast cancer; test: Clinical trial II: antiproliferative effect in operable breast cancer; assay type: in vivo, women; settings: oral, 20 days, 50 to 200 ug/day/p.o.; compound A 25 µg/day days 0 to 3, 50 µg/day days 4 to 6, 75 µg/day until day 20
Excerpt: 24 to 36 women with operable breast cancer, aged less than 70 years, in whom a positive biopsy cut has been obtained at the first clinic visit are selected. The patients are not be taking any chronic medication which is known to influence serum prolactin levels. The trial is effected on a randomized double blind basis. All patients are to have baseline evaluations before beginning treatment.
The women are given an oral dose of a COMPOUND OF THE INVEN-TION or placebo for 20 days, starting on day 0. They are operated on day 10 with either breast conservation or modified radical mastectomy. Prolactin levels in plasma are measured on days 0, 6, 10, 13 and 20. Histological evaluations are performed on days 1 and 10.

| SMILES | ID₅₀ mg/kg after 4 hours [1] | efficacies [2] | pD₂ [10g EC₅₀] [2] | toxic effects [3] | mitotic rate [4] |
| --- | --- | --- | --- | --- | --- |
| CN1C[C@@H](NS(=O)(=O)N(C)C)C[C@@H]2c3cccc4c3c(cn4C)C[C@H]21 [B, 1,6-dimethyl-8α-(N,N-dimethylsulphamoylamino)-ergoline-I] | 0.003 mg/kg |  |  |  |  |
| CCCN1C[C@H](CSC)C[C@@H]2c3cccc4[nH]cc(c34)C[C@H]21 [pergolide, 6-n-propyl-8α-methylmercaptomethyl-ergoline-I, reference compound] |  | 80 | 6.9 |  |  |
| CCCN1C[C@@H](NS(=O)(=O)N(CC)CC)C[C@@H]2c3cccc4[nH]cc(c34)C[C@H]21 [Compound C, 6-n-propyl-8α-(N,N-diethylsulphamoylamino)-ergoline-I] | 0.001 mg/kg | 90 | 6.9 |  |  |
| CCCN1CC(NS(=O)(=O)N(CC)CC)CC2Cc3c(O)cccc3CC21 (stereo not drawn) [Compound A, N,N-diethyl-N′-[(3α,4aα,10aβ)-1,2,3,4,4a,5,10,10a-octahydro-6-hydroxy-1-propyl-3-benzo[g]-quinolinyl] sulfamide] | 0.03 mg/kg |  |  | no toxic effects are observed | satisfactory results indicative of a reduced mitotic rate |
